Tests used:
Entamoeba histolytica = assay: Antiprotozoal activity against Entamoeba histolytica HM-1:IMSS; type: functional, organism-based
Giardia intestinalis = assay: Antiprotozoal activity against Giardia lamblia IMSS:1090:1; type: functional, organism-based; conditions: Giardia duodenalis

Structure (SMILES) | IC50 (Entamoeba histolytica) [µM] | IC50 (Giardia intestinalis) [µM]
C=C1[C@@H]2CC[C@H]3[C@]4(C)CCC[C@@](C)(C(=O)O)[C@H]4CC[C@]3(C2)[C@@H]1O[C@H]1O[C@@H](C)[C@@H](O)[C@@H](O)[C@@H]1O | 73.5 | 98.5
C=C1[C@@H]2CC[C@H]3[C@]4(C)CCC[C@@](C)(C(=O)O[C@@H]5O[C@H](CO)[C@@H](O)[C@H](O)[C@H]5O)[C@H]4CC[C@]3(C2)[C@@H]1O[C@H]1O[C@@H](C)[C@@H](OC(C)=O)[C@@H](O)[C@@H]1O | 49.5 | 69.5
C=C1[C@@H]2CC[C@H]3[C@]4(C)CCC[C@@](C)(C(=O)O[C@@H]5O[C@H](CO)[C@@H](O)[C@H](O)[C@H]5O)[C@H]4CC[C@]3(C2)[C@@H]1O[C@H]1O[C@@H](C)[C@@H](O)[C@@H](OC(C)=O)[C@@H]1O | 52.7 | 48.9
C=C1[C@@H]2CC[C@H]3[C@]4(C)CCC[C@@](C)(C(=O)O[C@@H]5O[C@H](CO)[C@@H](O)[C@H](O)[C@H]5O)[C@H]4CC[C@]3(C2)[C@@H]1O[C@H]1O[C@@H](C)[C@@H](O)[C@@H](O)[C@@H]1O | 43.3 | 41.9
